Target: Potassium voltage-gated channel subfamily A member 5 (Homo sapiens, UniProt P22460)
Experiment: Inhibition Assay: CHO-K1 cell lines stably expressing human Kv1.5 channels were prepared in the following manner.Full-length human Kv1.5 cDNA was cloned from a human heart cDNA library (produced by Stratagene). The obtained human Kv1.5 sequence corresponds to the sequence described in FASEB J. 5, 331-337 (1991).The obtained human Kv1.5 cDNA was inserted into a plasmid encoding a CMV promoter and a G418 resistance marker to produce a Kv1.5 expression vector. The human Kv1.5 expression vector was transfected into CHO-K1 cells by the lipofectamine method. After culturing the cells in an F-12 medium (produced by Invitrogen Corp.) containing 10% FBS (produced by Invitrogen Corp.) for 3 or 4 days, the medium was replaced with a FBS-containing F-12 medium that included 1,000 ug/ml of G418 (produced by Invitrogen Corp.), and single colonies were isolated. The amount of Kv1.5 channel expression in the single colonies was quantified at the mRNA level by RT-PCR and then quantified at the protein level.
Format: cell-based

Chain of Potassium voltage-gated channel subfamily A member 5 (P22460 whole entry): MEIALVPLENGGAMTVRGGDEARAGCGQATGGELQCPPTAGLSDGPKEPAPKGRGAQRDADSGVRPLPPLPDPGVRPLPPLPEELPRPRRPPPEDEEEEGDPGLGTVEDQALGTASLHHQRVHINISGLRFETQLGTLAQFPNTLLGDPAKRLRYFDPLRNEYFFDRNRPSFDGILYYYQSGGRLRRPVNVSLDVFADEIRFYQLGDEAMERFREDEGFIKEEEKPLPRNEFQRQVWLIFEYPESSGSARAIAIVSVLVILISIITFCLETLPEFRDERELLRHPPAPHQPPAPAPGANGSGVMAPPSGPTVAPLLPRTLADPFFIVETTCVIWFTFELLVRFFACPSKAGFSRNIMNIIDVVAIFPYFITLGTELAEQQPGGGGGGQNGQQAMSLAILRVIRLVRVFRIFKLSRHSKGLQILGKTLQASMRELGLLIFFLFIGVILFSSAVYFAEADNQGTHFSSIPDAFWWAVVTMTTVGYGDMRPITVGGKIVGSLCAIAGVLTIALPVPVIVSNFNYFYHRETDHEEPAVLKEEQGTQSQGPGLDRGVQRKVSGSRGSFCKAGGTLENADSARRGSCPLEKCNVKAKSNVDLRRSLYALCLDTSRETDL

Structure (SMILES): Cn1c(=O)ccc2cc(OCCCCCN(CCc3cccnc3)C(=O)c3cccnc3)ccc21
- IC50: 1400 nM
